# Measurements as given in patent US20230048349A1, “RECIRCULATING AQUACULTURE SYSTEM AND METHODS THEREOF” (THE TEXAS A&M UNIVERSITY SYSTEM, priority 2021, published 2023).
# Where two headings read alike, the source gives them in different places. Marks after values point to notes of the source that are not given here.
# Columns and labels:
# [1] = tested on: V. campbellii and A. hydrophila; test: Growth inhibition test, ranges stated over two G− pathogens (Example 8); type: cell-based, Vibrio campbellii; Aeromonas hydrophila; settings: range over V. campbellii and A. hydrophila
# Experimental: (§1) These compounds were used to assess the antimicrobial efficacy of PHB and chitosan under the best scenario. Various concentrations of PHB intermediates (5-125 mM), COS (0.2-3 mM), or mixtures of 3-HB+COS (i.e., Mixture 1 (4 mM 3-HB+0.1 mM COS), Mixture 2 (12 mM 3-HB+0.3 mM COS), Mixture 3 (24 mM 3-HB+0.6 mM COS), and Mixture 4 (60 mM 3-HB+1.5 mM COS)) were used based on previously in vitro antimicrobial studies using PHB or chitosan. For S. agalactiae and RHA1, tryptic soy broth (TSB) and Reasoner's 2A (R2A) media were used, respectively. The pH of all growth mediums (i.e., LB, TSB, or R2A) was adjusted to 6.0 based on the typical pH value found in aquatic animals' gut and the optimized antimicrobial activity of PHB. The culture tubes were inoculated with 2% v/v of the pre-grown strains (optical density (OD600) of 1.0) and incubated at 30° C. under 150 rpm. The bacterial growth was determined by absorbance at OD600. The growth of tested strains in the absence of PHB or chitosan intermediates were used as controls. The inhibition efficiency (%) was calculated using Eq. (1): […]
# (§2) where ODcontrol and ODsample refer to the highest optical densities of the growth curves for the controls and samples, respectively.
# Streptococcus agalactiae = test: Growth inhibition test in liquid medium (OD600); type: cell-based; settings: S. agalactide; for MIC: pH 6.0, 30° C.
# Experimental: as §1, §2
# Escherichia coli = test: Growth inhibition test in liquid medium (OD600); type: cell-based; settings: E. coli; for MIC: pH 6.0, 30° C.
# Experimental: as §1, §2
# Vibrio campbellii = test: Growth inhibition test in liquid medium (OD600); type: cell-based
# Experimental: as §1, §2
# Bacillus megaterium = test: Growth inhibition test in liquid medium (OD600); type: cell-based; settings: B. megaterium; for IC50: 4-parameter logistic fit; for MIC: pH 6.0, 30° C.
# Experimental: as §1, §2
# Rhodococcus jostii RHA1 = test: Growth inhibition test in liquid medium (OD600); type: cell-based; settings: R. jostii RHA1; for IC50: 4-parameter logistic fit; for MIC: pH 6.0, 30° C.
# Experimental: as §1, §2
# Aeromonas hydrophila = test: Growth inhibition test in liquid medium (OD600); type: cell-based; settings: A. hydrophila; for IC50: 4-parameter logistic fit
# Experimental: as §1, §2
# [2] = tested on: V. campbellii and A. hydrophila; test: Growth inhibition test of SCFAs and MCFAs, ranges over two G− pathogens (Example 15); type: cell-based, Vibrio campbellii; Aeromonas hydrophila; settings: range over V. campbellii and A. hydrophila; for IC50: LB pH 6; for MIC: LB pH 6, 5-125 mM tested
# Experimental: (§3) Growth Inhibition Tests: Antipathogenic Properties of SCFAs and MCFAs. Growth inhibition tests to measure optical density (OD600) and calculate % inhibition efficiencies, minimum, and median inhibitory concentrations (MIC and IC50) were conducted as described previously. […] The PHA intermediates (SCFAs and MCFAs) are water-soluble, representing the PHA degradation products in the gastrointestinal tract of aquatic animals, allowing to assess the antipathogenic efficacy of PHA under the best scenario. The culture tubes were incubated at 30° C. under 150 rpm. The growths of tested strains in the absence of PHA intermediates were used as controls.
# S. agalactiae = test: Growth inhibition test of SCFAs and MCFAs (Example 15); type: cell-based, Streptococcus agalactiae; settings: for IC50: S. agalactiae
# Experimental: as §3
# [3] = tested on: Vibrio-challenged Artemia; test: Artemia pathogen challenge test (Example 17); type: in vivo, Artemia franciscana; settings: after three days; supplement 1 g/L; V. campbellii 10^8 cells/ml
# Experimental: The pathogen challenge tests were designed to determine the effects of individual supplements on the survival of Vibrio-challenged Artemia. The pathogen challenge tests were conducted as described in the starvation tests, except that Artemia cultures (one day old) with each of the abovementioned supplements (1 g/L) were exposed to a lethal dose (10^8 cells/ml) of live V. campbellii as determined previously. In all treatments, 250 mg/L of yeast was added initially as a feed. Unchallenged and Vibrio-challenged Artemia were used as negative and positive controls, respectively. The survival of Artemia was monitored daily for three days.
# [4] = Vibrio campbellii, read-out: Inhibition Efficiency (%)
molecule,measurement,setting,value
"CC(O)CC(=O)O (stereo not drawn) [3-HB, 3-hydroxybutyrate]",IC50,[1],53 to 58 mM
same,MIC,[1],111.5 to 133 mM
same,Inhibition Efficiency (%),Streptococcus agalactiae; 5 mM,0.75 ± 0.01%
same,Inhibition Efficiency (%),Streptococcus agalactiae; 25 mM,0.75 ± 0.03%
same,Inhibition Efficiency (%),Streptococcus agalactiae; 50 mM,0.75 ± 0.01%
same,Inhibition Efficiency (%),Streptococcus agalactiae; 125 mM,13.8 ± 0.15%
same,MIC,Streptococcus agalactiae,945 mM
same,Inhibition Efficiency (%),Escherichia coli; 5 mM,2.68 ± 0.67%
same,Inhibition Efficiency (%),Escherichia coli; 25 mM,9.15 ± 3.12%
same,Inhibition Efficiency (%),Escherichia coli; 50 mM,24.5 ± 2.23%
same,Inhibition Efficiency (%),Escherichia coli; 125 mM,26.5 ± 1.34%
same,MIC,Escherichia coli,510 mM
same,Inhibition Efficiency (%),"Vibrio campbellii; 5 mM, V. campellii",1.27 ± 1.07%
same,Inhibition Efficiency (%),"Vibrio campbellii; 25 mM, V. campellii",14.0 ± 1.78%
same,Inhibition Efficiency (%),"Vibrio campbellii; 50 mM, V. campellii",42.4 ± 5.88%
same,Inhibition Efficiency (%),"Vibrio campbellii; 125 mM, V. campellii",100%
same,IC50,"Vibrio campbellii; V. campellii, 4-parameter logistic fit, read-out: IC50",53 mM
same,MIC,"Vibrio campbellii; V. campellii, pH 6.0, 30° C.",111.5 mM
same,Inhibition Efficiency (%),Bacillus megaterium; 5 mM,6.52 ± 3.48%
same,Inhibition Efficiency (%),Bacillus megaterium; 25 mM,−1.35 ± 1.04%
same,Inhibition Efficiency (%),Bacillus megaterium; 50 mM,12.9 ± 0.94%
same,Inhibition Efficiency (%),Bacillus megaterium; 125 mM,17.0 ± 14.4%
same,IC50,Bacillus megaterium,N.I.
same,MIC,Bacillus megaterium,N.I.
same,Inhibition Efficiency (%),Rhodococcus jostii RHA1; 5 mM,−32.3 ± 2.20%
same,Inhibition Efficiency (%),Rhodococcus jostii RHA1; 25 mM,−87.3 ± 4.00%
same,Inhibition Efficiency (%),Rhodococcus jostii RHA1; 50 mM,−61.7 ± 0.58%
same,Inhibition Efficiency (%),Rhodococcus jostii RHA1; 125 mM,100%
same,IC50,Rhodococcus jostii RHA1,N.I.
same,MIC,Rhodococcus jostii RHA1,N.I.
same,Inhibition Efficiency (%),Aeromonas hydrophila; 5 mM,2.7 ± 1.26%
same,Inhibition Efficiency (%),Aeromonas hydrophila; 25 mM,24.1 ± 2.70%
same,Inhibition Efficiency (%),Aeromonas hydrophila; 50 mM,31.1 ± 3.59%
same,Inhibition Efficiency (%),Aeromonas hydrophila; 125 mM,100%
same,IC50,Aeromonas hydrophila,57.7 mM
same,MIC,"Aeromonas hydrophila; pH 6.0, 30° C.",133 mM
"CCCC(=O)O [Butyrate, butyrate]",IC50,[2],8.97 to 30.9 mM
same,IC50,S. agalactiae; Streptococcus agalactiae,57.5 mM
same,IC50,[1],5.8 to 39.7 mM
same,inhibition at 5000 µM,"Streptococcus agalactiae; Streptococcus agalactiae, 5 mM, read-out: Inhibition Efficiency (%)",0.75 ± 0.01%
same,inhibition at 25000 µM,"Streptococcus agalactiae; Streptococcus agalactiae, 25 mM, read-out: Inhibition Efficiency (%)",0.43 ± 0.15%
same,inhibition at 50000 µM,"Streptococcus agalactiae; Streptococcus agalactiae, 50 mM, read-out: Inhibition Efficiency (%)",10.2 ± 1.83%
same,inhibition at 125000 µM,"Streptococcus agalactiae; Streptococcus agalactiae, 125 mM, read-out: Inhibition Efficiency (%)",100%
same,IC50,"Streptococcus agalactiae; Streptococcus agalactiae, 4-parameter logistic fit",83.4 mM
same,inhibition at 5000 µM,"Escherichia coli; Escherichia coli, 5 mM, read-out: Inhibition Efficiency (%)",5 ± 0.89%
same,inhibition at 25000 µM,"Escherichia coli; Escherichia coli, 25 mM, read-out: Inhibition Efficiency (%)",10.7 ± 12%
same,inhibition at 50000 µM,"Escherichia coli; Escherichia coli, 50 mM, read-out: Inhibition Efficiency (%)",23 ± 6.24%
same,inhibition at 125000 µM,"Escherichia coli; Escherichia coli, 125 mM, read-out: Inhibition Efficiency (%)",71.1 ± 8.25%
same,IC50,"Escherichia coli; Escherichia coli, 4-parameter logistic fit",61.2 mM
same,IC50,Vibrio campbellii; Vibrio campbellii,3.82 mM
same,MIC,"Vibrio campbellii; Vibrio campbellii, pH 6",25.7 mM
same,inhibition at 5000 µM,Vibrio campbellii; [4],9.14 ± 8.9%
same,inhibition at 25000 µM,Vibrio campbellii; [4],100%
same,inhibition at 50000 µM,Vibrio campbellii; [4],100%
same,inhibition at 125000 µM,Vibrio campbellii; [4],100%
same,inhibition at 5000 µM,"Bacillus megaterium; Priestia megaterium, 5 mM, read-out: Inhibition Efficiency (%)",-5.8 ± 1.74%
same,inhibition at 25000 µM,"Bacillus megaterium; Priestia megaterium, 25 mM, read-out: Inhibition Efficiency (%)",15.5 ± 1.56%
same,inhibition at 50000 µM,"Bacillus megaterium; Priestia megaterium, 50 mM, read-out: Inhibition Efficiency (%)",100%
same,inhibition at 125000 µM,"Bacillus megaterium; Priestia megaterium, 125 mM, read-out: Inhibition Efficiency (%)",100%
same,IC50,"Bacillus megaterium; Priestia megaterium, read-out: IC50",26.2 mM
same,MIC,"Bacillus megaterium; Priestia megaterium, read-out: MIC",53 mM
same,IC50,Rhodococcus jostii RHA1,N.I.
same,MIC,Rhodococcus jostii RHA1,N.I.
same,inhibition at 5000 µM,"Rhodococcus jostii RHA1; Rhodococcus jostii, 5 mM, read-out: Inhibition Efficiency (%)",-25.2 ± 4.93%
same,inhibition at 25000 µM,"Rhodococcus jostii RHA1; Rhodococcus jostii, 25 mM, read-out: Inhibition Efficiency (%)",-70.8 ± 2.65%
same,inhibition at 50000 µM,"Rhodococcus jostii RHA1; Rhodococcus jostii, 50 mM, read-out: Inhibition Efficiency (%)",-92.2 ± 21.6%
same,inhibition at 125000 µM,"Rhodococcus jostii RHA1; Rhodococcus jostii, 125 mM, read-out: Inhibition Efficiency (%)",100%
same,inhibition at 5000 µM,"Aeromonas hydrophila; Aeromonas hydrophila, 5 mM, read-out: Inhibition Efficiency (%)",0.8 ± 0.22%
same,inhibition at 25000 µM,"Aeromonas hydrophila; Aeromonas hydrophila, 25 mM, read-out: Inhibition Efficiency (%)",12.7 ± 1.8%
same,inhibition at 50000 µM,"Aeromonas hydrophila; Aeromonas hydrophila, 50 mM, read-out: Inhibition Efficiency (%)",72.4 ± 5.4%
same,inhibition at 125000 µM,"Aeromonas hydrophila; Aeromonas hydrophila, 125 mM, read-out: Inhibition Efficiency (%)",100%
same,IC50,Aeromonas hydrophila; Aeromonas hydrophila,39.7 mM
same,survival of Vibrio-challenged Artemia,[3],10%
CCCCCCCC(=O)O [octanoate],MIC,[2],< 5 mM
same,MIC,"S. agalactiae; stated for all pathogenic growth, incl. S. agalactiae",< 5 mM
same,survival of Vibrio-challenged Artemia,[3],80%
CCCCC(=O)O [valerate],IC50,[2],0.84 to 11.1 mM
same,MIC,[2],62.4 to 77.9 mM
same,IC50,S. agalactiae,30.2 mM
same,survival of Vibrio-challenged Artemia,[3],10%
chitosan oligosaccharide lactate [COS],Inhibition Efficiency (%),Streptococcus agalactiae; 0.6 mM,95.4 ± 0.01%
same,Inhibition Efficiency (%),Streptococcus agalactiae; 1.2 mM,100%
same,Inhibition Efficiency (%),Streptococcus agalactiae; 3 mM,100%
same,MIC,Streptococcus agalactiae,1.08 mM
same,Inhibition Efficiency (%),Escherichia coli; 0.2 mM,60.6 ± 4.56%
same,Inhibition Efficiency (%),Escherichia coli; 0.6 mM,90.6 ± 0.91%
same,Inhibition Efficiency (%),Escherichia coli; 1.2 mM,100%
same,Inhibition Efficiency (%),Escherichia coli; 3 mM,100%
same,MIC,Escherichia coli,1.88 mM
same,Inhibition Efficiency (%),"Vibrio campbellii; 0.2 mM, V. campellii",76.5 ± 1.13%
same,Inhibition Efficiency (%),"Vibrio campbellii; 0.6 mM, V. campellii",93.0 ± 1.10%
same,Inhibition Efficiency (%),"Vibrio campbellii; 1.2 mM, V. campellii",95.0 ± 0.23%
same,Inhibition Efficiency (%),"Vibrio campbellii; 3 mM, V. campellii",100%
same,MIC,"Vibrio campbellii; V. campellii, pH 6.0, 30° C.",2.36 mM
same,Inhibition Efficiency (%),Bacillus megaterium; 0.2 mM,100%
same,Inhibition Efficiency (%),Bacillus megaterium; 0.6 mM,100%
same,Inhibition Efficiency (%),Bacillus megaterium; 1.2 mM,100%
same,Inhibition Efficiency (%),Bacillus megaterium; 3 mM,100%
same,MIC,Bacillus megaterium,<0.2^c mM
same,Inhibition Efficiency (%),Rhodococcus jostii RHA1; 0.2 mM,100%
same,Inhibition Efficiency (%),Rhodococcus jostii RHA1; 0.6 mM,100%
same,Inhibition Efficiency (%),Rhodococcus jostii RHA1; 1.2 mM,100%
same,Inhibition Efficiency (%),Rhodococcus jostii RHA1; 3 mM,100%
same,MIC,Rhodococcus jostii RHA1,<0.2 mM
same,Inhibition Efficiency (%),Aeromonas hydrophila; 0.2 mM,4.81 ± 0.11%
same,Inhibition Efficiency (%),Aeromonas hydrophila; 0.6 mM,−7.30 ± 0.40%
same,Inhibition Efficiency (%),Aeromonas hydrophila; 1.2 mM,77.6 ± 0.28%
same,Inhibition Efficiency (%),Aeromonas hydrophila; 3 mM,74.2 ± 0.61%
